SMILES strings stand for the structures. Counter-ions that a name gives are not always drawn.

Data set [1] concerns Male ICR mice. Put plainly: Nicotine conditioned place preference. Format: in vivo, mouse.
Data set [2] concerns Male ICR mice. Put plainly: Activity counts in the drug-paired compartment on CPP test day. The format is in vivo, mouse. Particulars: mean ± S.E.M., n=6-8.
The subject of data set [3] is Male ICR mice. Put plainly: Mecamylamine-precipitated nicotine withdrawal: somatic signs. The format is in vivo, mouse. The following applies: methoxsalen 15 mg/kg i.p. 15 min before nicotine 2 mg/kg s.c. three times daily for 4 days; mecamylamine 2 mg/kg s.c. on day 5.
Data set [4] concerns human CYP2A6. Particulars: ref Zhang et al., 2001; Damaj et al., 2007; cited from earlier work.
The nature of data set [5]: Plasma nicotine and cotinine levels in the CPP test. Format: in vivo, mouse.
Data set [6] concerns Male ICR mice. Nature of the data set: Mecamylamine-precipitated nicotine withdrawal: elevated plus maze. Format: in vivo, mouse.
The subject of data set [7] is Male ICR mice. Put plainly: Spontaneous nicotine withdrawal and its reversal: hot plate hyperalgesia. Format: in vivo, mouse. The following applies: chronic nicotine 36 mg/kg/day in minipumps for 7 days, after removing the mini pumps.
Data set [8] deals with Male ICR mice. Particulars: chronic nicotine 36 mg/kg/day in minipumps for 7 days, after removing the mini pumps.
The conditions of data set [9]: CYP2A(4/5) null mouse; ref Wei et al., 2013; cited from earlier work.

For `COc1c2occc2cc2ccc(=O)oc12` [Methoxsalen, 8-methoxypsoralen], the “Nicotine conditioned place preference” value is “no longer significant” in [1] (methoxsalen 45 mg/kg i.p. 15 min prior to nicotine 0.1 mg/kg s.c.); “produced a significant CPP” in [1] (methoxsalen 15 and 30 mg/kg i.p. 15 min prior to nicotine 0.1 mg/kg s.c.). Also, the “Activity counts in the drug-paired compartment on test day” value was found to be 524 ± 69 in data set [2] (methoxsalen 15 mg/kg i.p. + nicotine 0.1 mg/kg s.c.); 561 ± 83 in data set [2] (methoxsalen 15 mg/kg i.p. + saline); 488 ± 111 in [2] (methoxsalen 30 mg/kg i.p. + nicotine 0.1 mg/kg s.c.); 470 ± 105 in [2] (methoxsalen 30 mg/kg i.p. + saline); 513 ± 103 in data set [2] (methoxsalen 45 mg/kg i.p. + nicotine 0.1 mg/kg s.c.); 503 ± 89 in data set [2] (methoxsalen 45 mg/kg i.p. + saline). Besides, the Somatic withdrawal signs entry in [3] was “significant somatic withdrawal signs”. In data set [4], the “Inhibition of human CYP2A6” value is on record as “potent inhibitor”. Besides, the “Effect on nicotine plasma levels” value is recorded as “doubled” in [5] (highest dose of methoxsalen (45 mg/kg i.p.) before nicotine 0.1 mg/kg s.c.) and “significantly increased” in data set [5] (methoxsalen 15, 30, 45 mg/kg i.p. 15 min before nicotine 0.1 mg/kg s.c., blood 20 min after nicotine, last conditioning day). Besides, the “Number Crossovers (Mean ± SEM) in the plus-maze test” value in data set [6] (Methoxsalen 15 mg/kg i.p. / Vehicle / Mecamylamine 2 mg/kg s.c., 5 min, n=5-7) turned out to be 6.0 ± 0.8. For the same molecule, the “Average time spent in open arms (elevated plus maze)” value in data set [6] (methoxsalen 15 mg/kg i.p. 15 min before nicotine 2 mg/kg s.c. three times daily for 4 days, mecamylamine 2 mg/kg s.c. on day 5) was “further decrease”.

Turning to `CN1CCC[C@H]1c1cccnc1` [Nicotine, (−)-1-Methyl-2-(3-pyridyl) pyrrolidine (+)-bitartrate salt], the “Nicotine conditioned place preference” value in data set [1] (nicotine 0.1 mg/kg s.c. alone (vehicle pretreatment), vs vehicle-treated group) is on record as “did not induce place preference”. Besides, the “Time spent on the hot-plate in spontaneous withdrawal” value in data set [7] is on record as “decreased”. The “Number of somatic signs in spontaneous withdrawal” value in [8] was “significantly increased”. Besides, the “Decrease in rate of nicotine clearance” value in data set [9] was 90%.
